The first experiment deals with ABCA1 mRNA. Kind of experiment: ABCA1 mRNA induction in THP-1 cells, QuantiGene branched DNA assay. It is filed as cell-based. The note with it: 10 μM test compound, 18-20 hours. On the procedure: Modulation of expression of ABCA1 mRNA levels by the compounds of the invention was determined in the following assays.
Induction of ABC1 in THP-1 cells, was measured using QuantiGene® branched DNA assay as per manufacturer's instructions. Cultures of THP-1 were grown to subconfluence in DMEM/10% FBS before replacement with DMEM/BSA and 10 and 3 μM concentrations of the test compounds in DMSO for 18-20 hours. After treatment of cells with compounds, the cells were lysed with lysis buffer at 37° C. for 20 minutes. The cell lysate and ABCA1 specific probe (Genospectra, Inc., Fremont, Calif.) mix were added to the 96 well capture plate and hybridized at 53° C. for 16-18 hours. The signal was amplified using the amplifier and label probes provided with the QuantiGene® assay followed by addition of a luminescent alkaline phosphatase substrate, dioxitane. Luminescence was quantified in Victor V plate reader.
Step 1 • Cells are lysed to release mRNA in the presence of target probes. Target mRNA from lysed cells was then captured by hybridization and transferred to the Capture Plate.
Step 2 • Signal amplification was performed by hybridization of the bDNA Amplifier and Label Probe.
Step 3 • Addition of chemiluminescence substrate yielded a QuantiGene® signal proportional to the amount of mRNA present in the sample.
Table 1 presents the relative fold increase in ABCA1 expression over DMSO for various compounds of the invention when tested at a concentration of […].
With `CCOc1ccc2c(c1)C(C)(C)C1COc3c(OC)ccc(Br)c3C1N2` (stereo not shown) [Number 78, 1-bromo-9-ethoxy-4-methoxy-7,7-dimethyl-7,12,12a,6a-tetrahydrochromano[4,3-b]quinoline], the “ABCA1 Induction Fold Increase over DMSO Vehicle” value (“ABCA1 Induction Fold Increase” for short) stood at 2.7 FOLD INCREASE. Regarding `CCS(=O)(=O)N1CCN(C(=O)c2cnn(-c3ccc4c(c3)C(C)(C)[C@H]3COc5cccc(OC)c5[C@H]3N4)c2C)CC1` [Number 140, 1-((6aR,12aS)-6a,7,12,12a-tetrahydro-1-methoxy-7,7-dimethyl-6H-chromeno[4,3-b]quinolin-9-yl)-5-methyl-1H-pyrazole-4-((4-ethanesulfonylpiperazin-1-yl)methanone)], the “ABCA1 Induction Fold Increase” value came to 5.1 FOLD INCREASE.

For `CC1(C)c2cc(C(N)=O)ccc2NC2c3cc(Br)ccc3OCC21` (stereo not shown) [Number 5, 2-bromo-7,7-dimethyl-7,12,12a,6a-tetrahydrochromano[4,3-b]quinoline-9-carboxamide], the “ABCA1 Induction Fold Increase” value is reported as 3.5 FOLD INCREASE. Same read-out and setting: in the case of `COc1cccc2c1[C@H]1Nc3ccc(-c4ccccc4)cc3C(C)(C)[C@@H]1CO2` [Number 94, (12aS,6aS)-1-methoxy-7,7-dimethyl-9-phenyl-7,12,12a,6a-tetrahydrochromano[4,3-b]quinoline] it was 5.8 FOLD INCREASE.

Take `CC(C)Oc1ccc2c(c1)C(C)(C)C1COc3c(F)cccc3[C@H]1N2` (stereo partly drawn) [Number 103, (12aS)-4-fluoro-7,7-dimethyl-9-(methylethoxy)-7,12,12a,6a-tetrahydrochromano[4,3-b]quinoline]: the “ABCA1 Induction Fold Increase” value came out at 4.0 FOLD INCREASE. Still for that read-out and setting: in the case of `COc1cccc2c1OC[C@H]1C2Nc2ccc(C(O)(C(F)(F)F)C(F)(F)F)cc2C1(C)C` (stereo partly drawn) [Number 34, 2-((6aR)-4-methoxy-7,7-dimethyl(7,12,12a,6a-tetrahydrochromano[4,3-b]quinolin-9-yl))-1,1,1,3,3,3-hexafluoropropan-2-ol] it was 4.5 FOLD INCREASE; in that of `COc1ccc(Br)c2c1OCC1C2Nc2ccc(C(N)=S)cc2C1(C)C` (stereo not shown) [Number 82, amino(1-bromo-4-methoxy-7,7-dimethyl(7,12,12a,6a-tetrahydrochromano[4,3-b]quinolin-9-yl))methane-1-thione], 2.0 FOLD INCREASE; in that of `COc1cccc2c1[C@H]1Nc3ccc(C(C)C)cc3C(C)(C)[C@H]1CO2` [Number 54, (12aS,6aR)-1-methoxy-7,7-dimethyl-9-(methylethyl)-7,12,12a,6a-tetrahydrochromano[4,3-b]quinoline], 4.3 FOLD INCREASE. For `CCOC(=O)c1ccc(-c2ccc3c(c2)C(C)(C)[C@H]2COc4cccc(OC)c4[C@H]2N3)cc1` (relative stereo) [Number 107, ethyl 4-((12aS,6aR)-1-methoxy-7,7-dimethyl-7,12,12a,6a-tetrahydrochromano[4,3-b]quinolin-9-yl)benzoate], the “ABCA1 Induction Fold Increase” value was found to be 2.9 FOLD INCREASE.

In the case of `COc1cccc2c1[C@H]1Nc3ccc(-c4ccc(CO)cc4)cc3C(C)(C)[C@@H]1CO2` [Number 98, [4-((12aS,6aS)-1-methoxy-7,7-dimethyl-7,12,12a,6a-tetrahydrochromano[4,3-b]quinolin-9-yl)phenyl]methan-1-ol], the “ABCA1 Induction Fold Increase” value was 5.2 FOLD INCREASE. In the case of `COc1cccc2c1OC[C@@H]1[C@@H]2Nc2ccc(C(=O)N3CCS(=O)(=O)CC3)cc2C1(C)C` [Number 128, ((6aS,12aS)-6a,7,12,12a-tetrahydro-4-methoxy-7,7-dimethyl-6H-chromeno[4,3-b]quinolin-9-yl)(1,1-dione-1,4-thiazaperhydroin-yl)methanone], the “ABCA1 Induction Fold Increase” value worked out at 2.7 FOLD INCREASE.

As to `CCOP(=O)(Cc1ccc2c(c1)C(C)(C)C1COc3cccc(OC)c3C1N2)OCC` (stereo not shown) [Number 90, diethoxy[(1-methoxy-7,7-dimethyl(7,12,12a,6a-tetrahydrochromano[4,3-b]quinolin-9-yl))methyl]phosphino-1-one], the “ABCA1 Induction Fold Increase” value worked out at 7.6 FOLD INCREASE.

As for `COc1cccc2c1OCC1C2Nc2ccc(CC(=O)O)cc2C1(C)C` (stereo not shown) [Number 26, 2-(4-methoxy-7,7-dimethyl-7,12,12a,6a-tetrahydrochromano[4,3-b]quinolin-9-yl)acetic acid], the “ABCA1 Induction Fold Increase” value was 5.0 FOLD INCREASE. On the same count and under the same terms, in the case of `CC1(C)c2cc(C(O)(C(F)(F)F)C(F)(F)F)ccc2NC2c3ccc(C(=O)O)cc3OCC21` (stereo not shown) [Number 14, 7,7-dimethyl-9-[2,2,2-trifluoro-1-hydroxy-1-(trifluoromethyl)ethyl]-7,12,12a,6a-tetrahydrochromano[4,3-b]quinoline-3-carboxylic acid] it was 3.1 FOLD INCREASE; in that of “methylethyl 3-(4-methoxy-7,7-dimethyl-7,12-dihydro-6H-chromeno[4,3-b]quinolin-9-yl)benzoate [Number 61]”, 2.0 FOLD INCREASE; in that of `COC(=O)CCc1ccc2c(c1)C1Nc3ccc(C(O)(C(F)(F)F)C(F)(F)F)cc3C(C)(C)C1CO2` (stereo not shown) [Number 40, methyl 3-{7,7-dimethyl-9-[2,2,2-trifluoro-1-hydroxy-1-(trifluoromethyl)ethyl]-7,12,12a,6a-tetrahydrochromano[4,3-b]quinolin-2-yl}propanoate], 2.1 FOLD INCREASE. On the same count and under the same terms, in the case of `CCOc1cccc2c1OCC1C2Nc2ccc(C(F)(F)F)cc2C1(C)C` (stereo not shown) [Number 41, 4-ethoxy-7,7-dimethyl-9-(trifluoromethyl)-7,12,12a,6a-tetrahydrochromano[4,3-b]quinoline] it was 2.1 FOLD INCREASE; in that of `CC1(C)c2cc(C(O)(C(F)(F)F)C(F)(F)F)ccc2N[C@@H]2c3cc(Br)ccc3OC[C@H]21` [Number 3, 2-((12aS,6aS)-2-bromo-7,7-dimethyl(7,12,12a,6a-tetrahydrochromano[4,3-b]quinolin-9-yl))-1,1,1,3,3,3-hexafluoropropan-2-ol], 3.0 FOLD INCREASE.

Staying with this experiment, now noted: Homo sapiens, 10 μM test compound, 18-20 hours, read-out: ABCA1 Induction Fold Increase over DMSO Vehicle.
Take `COc1cc(Br)cc2c1OC[C@H]1[C@@H]2Nc2ccc(-c3nnn[nH]3)cc2C1(C)C` [Number 164, (6aR,12aS)-2-bromo-6a,7,12,12a-tetrahydro-4-methoxy-7,7-dimethyl-9-(1H-tetrazol-5-yl)-6H-chromeno[4,3-b]quinoline]: the fold induction at 10 µM is 5.6. The same measure, in the same setting: as for `CCOC(=O)c1cnn(-c2ccc3c(c2)C(C)(C)[C@H]2COc4cccc(OC)c4[C@H]2N3)c1C` [Number 116, ethyl 1-((6aR,12aS)-6a,7,12,12a-tetrahydro-1-methoxy-7,7-dimethyl-6H-chromeno[4,3-b]quinolin-9-yl)-5-methyl-1H-pyrazole-4-carboxylate], the figure is 2.7; as for `COc1ccc2c(c1)C(C)(C)[C@H]1COc3cccc(OC)c3[C@H]1N2Cc1ccccc1` [Number 158, (6aR,12aS)-12-benzyl-6a,7,12,12a-tetrahydro-1,9-dimethoxy-7,7-dimethyl-6H-chromeno[4,3-b]quinoline], 9.2.

Turning to `COc1cc(Br)cc2c1OC[C@H]1[C@@H]2Nc2ccc(-c3cnco3)cc2C1(C)C` [Number 149, (6aR,12aS)-2-bromo-6a,7,12,12a-tetrahydro-4-methoxy-7,7-dimethyl-9-(oxazol-5-yl)-6H-chromeno[4,3-b]quinoline], the fold induction at 10 µM is 5.5.

The record behind these values is US7432276B2, “ABCA1 elevating compounds” (CV Therapeutics, Inc., priority 2005, dated 2008).
